Measurements: the CheMixHub viscosity set

Assay: xn = mol fraction of the nth substance listed

ClCCCCCl + CCC(C)O
101 kPa
Conditions | viscosity [mPa·s]
298.15 K, x1 = 0.1012 | 2.118
298.15 K, x1 = 0.2021 | 1.633
298.15 K, x1 = 0.2996 | 1.408
298.15 K, x1 = 0.4004 | 1.281
298.15 K, x1 = 0.4967 | 1.199
298.15 K, x1 = 0.5999 | 1.158
298.15 K, x1 = 0.7024 | 1.143
298.15 K, x1 = 0.7987 | 1.151
298.15 K, x1 = 0.899 | 1.199
313.15 K, x1 = 0.1002 | 1.369
313.15 K, x1 = 0.2041 | 1.123
313.15 K, x1 = 0.3125 | 0.9913
313.15 K, x1 = 0.3996 | 0.9298
313.15 K, x1 = 0.5046 | 0.8882
313.15 K, x1 = 0.6034 | 0.8716
313.15 K, x1 = 0.7008 | 0.8721
313.15 K, x1 = 0.8052 | 0.8932
313.15 K, x1 = 0.9001 | 0.9458

Nc1cccc(Cl)c1 + CCC(C)O
viscosity [mPa·s], 101 kPa
Conditions | x1 = 0.0889 | x1 = 0.1799 | x1 = 0.2733 | x1 = 0.3691 | x1 = 0.4674 | x1 = 0.5683 | x1 = 0.6719 | x1 = 0.7783 | x1 = 0.8876
303.15 K | 2.756 | 2.919 | 3.087 | 3.256 | 3.422 | 3.585 | 3.744 | 3.904 | 4.07
308.15 K | 2.318 | 2.483 | 2.65 | 2.817 | 2.983 | 3.148 | 3.313 | 3.48 | 3.654
313.15 K | 2.001 | 2.157 | 2.312 | 2.467 | 2.623 | 2.779 | 2.937 | 3.097 | 3.261
318.15 K | 1.706 | 1.857 | 2.003 | 2.147 | 2.29 | 2.434 | 2.579 | 2.727 | 2.874

CC12CCC(CC1)C(C)(C)O2 + CCCCCC
298.15 K, 101.33 kPa
Conditions | viscosity [mPa·s]
x2 = 0.0339 | 2.317
x2 = 0.0677 | 2.11
x2 = 0.1616 | 1.642
x2 = 0.2491 | 1.325
x2 = 0.3454 | 1.063
x2 = 0.4734 | 0.8
x2 = 0.6205 | 0.593
x2 = 0.7181 | 0.491
x2 = 0.8281 | 0.4
x2 = 0.8953 | 0.359
x2 = 0.9363 | 0.33

CCCOC(=O)CC + CCCCCC
298.15 K, 101.33 kPa
Conditions | viscosity [mPa·s]
x1 = 0.0581 | 0.299
x1 = 0.1227 | 0.31
x1 = 0.2151 | 0.33
x1 = 0.3111 | 0.355
x1 = 0.3983 | 0.379
x1 = 0.4343 | 0.389
x1 = 0.4898 | 0.401
x1 = 0.5466 | 0.421
x1 = 0.586 | 0.433
x1 = 0.68 | 0.465
x1 = 0.8894 | 0.557
x1 = 0.9133 | 0.573

Cc1ccccc1Cl + CCCCCC
viscosity [mPa·s], 100 kPa
Conditions | 298.15 K | 308.15 K | 318.15 K
x1 = 0.0629 | 0.341 | 0.315 | 0.292
x1 = 0.1435 | 0.369 | 0.338 | 0.313
x1 = 0.2364 | 0.398 | 0.37 | 0.343
x1 = 0.3403 | 0.436 | 0.401 | 0.37
x1 = 0.4252 | 0.477 | 0.437 | 0.401
x1 = 0.4608 | 0.499 | 0.451 | 0.414
x1 = 0.5249 | 0.54 | 0.485 | 0.445
x1 = 0.5742 | 0.574 | 0.515 | 0.471
x1 = 0.6237 | 0.611 | 0.546 | 0.496
x1 = 0.6816 | 0.657 | 0.585 | 0.531
x1 = 0.7398 | 0.705 | 0.624 | 0.565
x1 = 0.8335 | 0.785 | 0.7 | 0.63
x1 = 0.9276 | 0.889 | 0.789 | 0.706

C1C[C@@H]2[C@H]3CC[C@H](C3)[C@@H]2C1 + CCCCCCCC
viscosity [mPa·s], 100 kPa
Conditions | x1 = 0.1007 | x1 = 0.2005 | x1 = 0.2991 | x1 = 0.4 | x1 = 0.5001 | x1 = 0.5986 | x1 = 0.6988 | x1 = 0.8019 | x1 = 0.9005
293.15 K | 0.616 | 0.697 | 0.806 | 0.956 | 1.085 | 1.282 | 1.537 | 1.896 | 2.342
298.15 K | 0.582 | 0.655 | 0.756 | 0.892 | 1.007 | 1.187 | 1.415 | 1.735 | 2.13
303.15 K | 0.551 | 0.618 | 0.711 | 0.83 | 0.94 | 1.102 | 1.311 | 1.597 | 1.95
308.15 K | 0.523 | 0.585 | 0.67 | 0.78 | 0.879 | 1.027 | 1.215 | 1.475 | 1.793
313.15 K | 0.499 | 0.555 | 0.634 | 0.733 | 0.825 | 0.96 | 1.13 | 1.367 | 1.654

CCCOC(=O)CC + CCCCCCCCCC
298.15 K, 101.33 kPa
Conditions | viscosity [mPa·s]
x2 = 0.0964 | 0.647
x2 = 0.1323 | 0.65
x2 = 0.1683 | 0.653
x2 = 0.2534 | 0.661
x2 = 0.3486 | 0.672
x2 = 0.3989 | 0.68
x2 = 0.5459 | 0.706
x2 = 0.6381 | 0.728
x2 = 0.7337 | 0.756
x2 = 0.8679 | 0.802
x2 = 0.9275 | 0.827
